Reference: patent US20060160894A1, “Benzamides as ppar modulators” (LABORATORIOS S.A.L.V.A.T.,S.A., priority 2003, published 2006)

Tests used:
[1] = target: T1, GST-hPPARγ2 (Homo sapiens, UniProt P37231); assay: Assay of binding to the PPARγ2 ([3H]BRL-49853 displacement); conditions: Table 19; GST-hPPARγ2, [3H]BRL-49853 100 nM; read-out: Affinity PPARγ(1)
T1 construct: the complete cDNA of the […] human PPARs were cloned into pGEX4T2; made in house; host or cells: Escherichia coli BL21 (DE3)
T1 sequence (P37231 1-505): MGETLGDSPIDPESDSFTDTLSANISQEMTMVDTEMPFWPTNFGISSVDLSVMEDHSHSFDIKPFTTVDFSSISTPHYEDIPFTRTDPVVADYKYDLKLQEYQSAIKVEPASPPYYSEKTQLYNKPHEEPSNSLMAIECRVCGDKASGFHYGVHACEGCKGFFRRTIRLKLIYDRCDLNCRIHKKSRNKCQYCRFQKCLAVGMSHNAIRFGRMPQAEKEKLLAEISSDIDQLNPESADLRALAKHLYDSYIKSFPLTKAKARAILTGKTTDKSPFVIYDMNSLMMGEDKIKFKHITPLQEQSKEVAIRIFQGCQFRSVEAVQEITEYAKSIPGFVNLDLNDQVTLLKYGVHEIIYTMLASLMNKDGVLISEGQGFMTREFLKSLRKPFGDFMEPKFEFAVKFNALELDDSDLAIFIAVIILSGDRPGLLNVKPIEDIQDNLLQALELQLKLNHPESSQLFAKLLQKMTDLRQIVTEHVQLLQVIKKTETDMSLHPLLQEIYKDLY
Protocol: Assay of Binding to the PPARγ2
The cDNA encoding for the open reading frame of the hPPARγ2 is amplified by PCR (polymerase chain reaction) and inserted in the plasmid pGEX-4T-2.
The reaction mixture was transferred to a Multiscreen Durapore (Millipore) microplate containing glutathione-Sepharose 4B in every well. The reaction mixture was left to incubate with the resin during 10 min, and then centrifuged at 735 g during 2 min. To dissociate the receptor bound to the resin, reduced glutathione 10 mM is added and incubated during 10 min. The receptor was eluted by centrifugation. Then, 800 μL of scintillation liquid were added to the elution and the contained radioactivity was quantified by liquid scintillation spectroscopy (Microbeta Wallac, Perkin Elmer).

[2] = target: T2, PPARγ LBD (Homo sapiens, UniProt P37231); assay: LBD-hPPARs transactivation assay (GAL4-LBD luciferase reporter in COS-7 cells); assay type: cell-based; conditions: 48 h
T2 construct: expressed in transfected cells; host or cells: COS-7
T2 sequence (P37231 238-503 limits assumed): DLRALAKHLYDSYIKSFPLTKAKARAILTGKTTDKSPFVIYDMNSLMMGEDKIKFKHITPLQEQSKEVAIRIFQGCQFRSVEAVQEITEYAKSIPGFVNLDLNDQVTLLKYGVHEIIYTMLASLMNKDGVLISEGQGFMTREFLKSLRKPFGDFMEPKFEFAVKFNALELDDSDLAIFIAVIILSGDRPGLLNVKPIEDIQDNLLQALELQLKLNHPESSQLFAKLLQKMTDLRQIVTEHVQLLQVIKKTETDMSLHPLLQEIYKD
Excerpt: LBD-hPPARs Transactivation Assay
COS-7 cells were cultivated in 24-well plates and transfected with the pFACMV plasmids that encode the chimeric proteins containing the GAL4 DNA binding domain fused to the PPARγ LBD. The reporter plasmid for the foregoing constructions was pFR-Luc, which contains five repetitions of the GAL4-response element in front of a promoter that controls the transcription of the luciferase gene. Lipofectamine was used as a transfection agent.
The plasmids of the chimeric receptors and the reporter gene were inserted in the cells by transitory transfection in COS-7 cells in culture.

Ki [1] [nM]	Functional activity PPARγ [2]	Compound
< 1000	Partial agonist	COC(=O)[C@H](Cc1ccc(OCc2ccccc2)cc1)NC(=O)c1ccc(OCc2ccccc2Cl)cc1 [Example 20, (2S)-3-(4-Benzyloxyphenyl)-2-[4-(2-chlorobenzyloxy)benzoylamino]propionic acid methyl ester]
< 1000	Partial agonist	COC(=O)[C@H](Cc1ccc(OCc2ccccc2)cc1)NC(=O)c1ccc(OCc2cccc(Cl)c2)cc1 [Example 21, (2S)-3-(4-Benzyloxyphenyl)-2-[4-(3-chlorobenzyloxy)benzoylamino]propionic acid methyl ester]
< 1000	Antagonist	COC(=O)[C@H](Cc1ccc(OCc2ccccc2)cc1)NC(=O)c1ccc(OCc2ccccc2C)cc1 [Example 27, (2S)-3-(4-Benzyloxyphenyl)-2-[4-(2-methylbenzyloxy)benzoylamino]propionic acid methyl ester]
< 1000	Agonist	COC(=O)[C@H](Cc1ccc(OCc2ccccc2)cc1)NC(=O)c1ccc(OCCOc2nc3ccccc3nc2C)cc1 [Example 95, (2S)-3-(4-Benzyloxyphenyl)-2-{4-[2-(3-methylquinoxalin-2-yloxy)ethoxy]benzoylamino}propionic acid methyl ester]
< 1000	Antagonist	COC(=O)[C@H](Cc1ccc(OCc2ccccc2)cc1)NC(=O)c1ccc(OCCOc2cccc3cccnc23)cc1 [Example 98, (2S)-3-(4-Benzyloxyphenyl)-2-{4-[2-(quinolin-8-yloxy)ethoxy]-benzoylamino}propionic acid methyl ester]
< 1000	Partial agonist	O=C(N[C@@H](Cc1ccc(OCc2ccccc2)cc1)C(=O)O)c1ccc(OCc2ccccc2)cc1 [Example 129, (2S)-2-(4-Benzyloxybenzoylamino)-3-(4-benzyloxyphenyl)propionic acid]
1000 to 3000	Partial agonist	O=C(N[C@H](Cc1c[nH]c2ccccc12)C(=O)O)c1ccc(OCCN(Cc2ccccc2)Cc2ccccc2)cc1 [Example 131, (2R)-2-[4-(2-Dibenzylaminoethoxy)benzoylamino]-3-(1H-indol-3-yl)propionic acid]
1000 to 3000	Antagonist	O=C(NC(Cc1ccc(-c2ccccc2)cc1)C(=O)O)c1ccc(OCCN(Cc2ccccc2)Cc2ccccc2)cc1 (stereo not shown) [Example 136, 3-Biphenyl-4-yl-2-[4-(2-dibenzylaminoethoxy)benzoylamino]propionic acid]
1000 to 3000	Antagonist	O=C(NC(Cc1cccc(Oc2ccccc2)c1)C(=O)O)c1ccc(OCCN(Cc2ccccc2)Cc2ccccc2)cc1 (stereo not shown) [Example 141, 2-[4-(2-Dibenzylaminoethoxy)benzoylamino]-3-(3-phenoxyphenyl)propionic acid]
1000 to 3000	Antagonist	O=C(NC(Cc1c[nH]c2ccc(Br)cc12)C(=O)O)c1ccc(OCCN(Cc2ccccc2)Cc2ccccc2)cc1 (stereo not shown) [Example 142, 3-(5-Bromo-1H-indol-3-yl)-2-[4-(2-dibenzylaminoethoxy)benzoylamino]propionic acid]
1000 to 3000	Antagonist	O=C(N[C@@H](Cc1ccc(OCc2ccccc2)cc1)C(=O)O)c1cccc(OCc2cccc(OCc3ccccc3)c2)c1 [Example 145, (2S)-2-[3-(3-Benzyloxybenzyloxy)benzoylamino]-3-(4-benzyloxyphenyl)propionic acid]
1000 to 3000	Antagonist	O=C(O)CN(Cc1cccc(Oc2ccccc2)c1)C(=O)c1ccc(OCCN(Cc2ccccc2)Cc2ccccc2)cc1 [Example 146, {[4-(2-Dibenzylaminoethoxy)benzoyl]-(3-phenoxybenzyl)amino}acetic acid]
1000 to 3000	Partial agonist	O=C(N[C@@H](Cc1ccc(OCc2ccccc2)cc1)C(=O)O)c1ccc(OCCCc2ccccc2)cc1 [Example 153, (2S)-3-(4-Benzyloxyphenyl)-2-[4-(3-phenylpropoxy)benzoylamino]propionic acid]
> 3000	Partial agonist	Cc1nc2ccccc2nc1OCCOc1ccc(C(=O)N[C@@H](Cc2ccc(OCc3ccccc3)cc2)C(=O)O)cc1 [Example 160, (2S)-3-(4-Benzyloxyphenyl)-2-{4-[2-(3-methylquinoxalin-2-yloxy)ethoxy]benzoylamino}propionic acid]
1000 to 3000	Antagonist	O=C(N[C@@H](Cc1ccc(OCc2ccccc2)cc1)C(=O)O)c1ccc(OCCOc2cccc(Br)c2)cc1 [Example 161, (2S)-3-(4-Benzyloxyphenyl)-2-{4-[2-(3-bromophenoxy)ethoxy]benzoylamino}propionic acid]
< 1000	Antagonist	O=C(O)CCN(Cc1cccc(OCc2ccccc2)c1)C(=O)c1ccc(OCCN(Cc2ccccc2)Cc2ccccc2)cc1 [Example 162, 3-{(3-Benzyloxybenzyl)-[4-(2-dibenzylaminoethoxy)benzoyl]amino}propionic acid]
< 1000	Antagonist	O=C(O)CCN(Cc1cccc(OCc2ccccc2)c1)C(=O)c1cccc(OCCN(Cc2ccccc2)Cc2ccccc2)c1 [Example 163, 3-{(3-Benzyloxybenzyl)-[3-(2-dibenzylaminoethoxy)benzoyl]amino}propionic acid]
1000 to 3000	Antagonist	O=C(O)CCN(Cc1ccc(OCc2ccccc2)cc1)C(=O)c1cccc(OCCN(Cc2ccccc2)Cc2ccccc2)c1 [Example 164, 3-{(4-Benzyloxybenzyl)-[3-(2-dibenzylaminoethoxy)benzoyl]amino}propionic acid]
1000 to 3000	Antagonist	Cc1nc2ccccc2nc1OCCOc1ccc(C(=O)N(CCC(=O)O)Cc2cccc(OCc3ccccc3)c2)cc1 [Example 170, 3-{(3-Benzyloxybenzyl)-{4-[2-(3-methylquinoxalin-2-yloxy)ethoxy]benzoyl}amino}propionic acid]
< 1000	Antagonist	O=C(O)CCN(Cc1ccc(OCc2ccccc2)cc1)C(=O)c1ccc(OCc2cccc(OCc3ccccc3)c2)cc1 [Example 176, 3-{(4-Benzyloxybenzyl)-[4-(3-benzyloxybenzyloxy)benzoyl]amino}propionic acid]
< 1000	Partial agonist	Cc1nc2ccccc2nc1OCCOc1cccc(C(=O)N[C@@H](Cc2ccc(OCc3ccccc3)cc2)C(=O)O)c1 [Example 180, (2S)-3-(4-Benzyloxyphenyl)-2-{3-[2-(3-methylquinoxalin-2-yloxy)ethoxy]benzoylamino}propionic acid]
< 1000	Partial agonist	O=C(N[C@@H](Cc1ccc(OCc2ccccc2)cc1)C(=O)O)c1ccc(OCc2ccc(OCc3ccccc3)cc2)cc1 [Example 183, (2S)-2-[4-(4-Benzyloxybenzyloxy)benzoylamino]-3-(4-benzyloxyphenyl)propionic acid]
< 1000	Partial agonist	O=C(N[C@@H](Cc1ccc(OCc2ccccc2)cc1)C(=O)O)c1cccc(OCc2ccc(OCc3ccccc3)cc2)c1 [Example 185, (2S)-2-[3-(4-Benzyloxybenzyloxy)benzoylamino]-3-(4-benzyloxyphenyl)propionic acid]
